Consider 37 compounds from patent publication US9051290B2, “Biaryl phosphodiesterase inhibitors” (LEO PHARMA A/S, priority 2010, dated 2015).

pIC50: −log10 of the molar value. Some results are limits rather than exact numbers.

Human recombinant PDE4 (Genbank accession no NM—006203), sequence (Q08499 1-673 isoform Q08499-2): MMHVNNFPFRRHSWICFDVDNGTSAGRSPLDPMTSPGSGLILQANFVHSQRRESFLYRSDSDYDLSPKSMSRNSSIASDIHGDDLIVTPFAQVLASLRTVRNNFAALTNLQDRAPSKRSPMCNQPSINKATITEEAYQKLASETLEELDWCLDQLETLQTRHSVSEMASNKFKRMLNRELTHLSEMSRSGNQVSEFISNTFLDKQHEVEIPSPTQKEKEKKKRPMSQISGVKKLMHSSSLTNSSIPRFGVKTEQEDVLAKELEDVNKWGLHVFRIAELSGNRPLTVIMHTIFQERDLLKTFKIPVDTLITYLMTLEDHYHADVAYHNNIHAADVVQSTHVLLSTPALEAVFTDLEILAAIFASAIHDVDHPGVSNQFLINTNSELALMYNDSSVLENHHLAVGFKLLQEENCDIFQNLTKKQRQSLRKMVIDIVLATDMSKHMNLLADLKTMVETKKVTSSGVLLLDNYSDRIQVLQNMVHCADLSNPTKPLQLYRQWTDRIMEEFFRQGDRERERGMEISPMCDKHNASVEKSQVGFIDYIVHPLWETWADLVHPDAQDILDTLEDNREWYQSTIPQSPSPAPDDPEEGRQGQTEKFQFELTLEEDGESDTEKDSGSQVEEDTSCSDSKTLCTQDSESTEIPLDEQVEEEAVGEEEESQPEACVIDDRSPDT

This assay addresses Human recombinant PDE4 (Genbank accession no NM—006203) (Homo sapiens, UniProt Q08499). Put plainly: PDE4 assay (SPA, cleavage of cAMP). The assay is classed as biochemical. The settings on record: 1 hour incubation, test compound up to 10 μM, cAMP 1×10^−5M, read-out: PDE4 IC50 range. The method, then:
Human recombinant PDE4 (Genbank accession no NM_006203) was incubated for 1 hour with the test compound at concentrations up to 10 μM, with cAMP (1×10^−5M), and with a low amount (0.021 MBq) of radioactively labelled cAMP. At the end of the incubation, the cleavage of the substrate was evaluated by the binding of the AMP product to SPA beads, which generate chemoluminescence when bound to the radioactive tracer. The AMP product inhibited the binding of the radioactive tracer to the beads, and the luminescent signal was competed.
The results were calculated as the molar concentrations resulting in 50% inhibition of the substrate cleavage compared to controls samples, and are expressed as a range of IC50 (M).
The compounds of the present invention were tested in the PDE4 assay.
On to `COc1ccc(-c2ccc3c(c2)COC3=O)c(OCCC(C)C)c1OC` [Compound 131, 5-[3,4-Dimethoxy-2-(3-methyl-butoxy)-phenyl]-3H-isobenzofuran-1-one], for which the pIC50 was over 7.00.
Under `COc1ccc(-c2ccc3c(c2)COC3=O)c(OCC(C)(C)C)c1OC` [Compound 132, 5-[2-(2,2-Dimethyl-propoxy)-3,4-dimethoxy-phenyl]-3H-isobenzofuran-1-one] stands over 7.00; under `COc1ccc(-c2ccc3c(c2)COC3=O)c(OCC2CCC2)c1OC` [Compound 133, 5-(2-Cyclobutylmethoxy-3,4-dimethoxy-phenyl)-3H-isobenzofuran-1-one], over 7.00; under `COc1ccc(-c2ccc3c(c2)COC3=O)c(OCC2(CO)COC2)c1OC` [Compound 134, 5-[2-(3-Hydroxymethyl-oxetan-3-ylmethoxy)-3,4-dimethoxy-phenyl]-3H-isobenzofuran-1-one], over 7.00.
With `COc1ccc(-c2ccc3c(c2)COC3=O)c(OCCC(C)(C)C)c1OC` [Compound 135, 5-[2-(3,3-Dimethyl-butoxy)-3,4-dimethoxy-phenyl]-3H-isobenzofuran-1-one], the negative logarithm of the IC50 (pIC50) was over 7.00.
Turning to `COc1ccc(-c2ccc3c(c2)COC3=O)c(OCc2ccc(C(N)=O)cc2)c1OC` [Compound 136, 4-[2,3-Dimethoxy-6-(1-oxo-1,3-dihydro-isobenzofuran-5-yl)-phenoxymethyl]-benzamide], the pIC50 is over 7.00.
Under `COc1ccc(-c2ccc3c(c2)COC3=O)c(OCC(C)(C)CO)c1OC` [Compound 137, 5-[2(3-Hydroxy-2,2-dimethyl-propoxy)-3,4-dimethoxy-phenyl]-3H-isobenzofuran-1-one] stands over 7.00.
Take `CNC(=O)c1ccc(COc2c(-c3ccc4c(c3)COC4=O)ccc(OC)c2OC)cc1` [Compound 138, 4-[2,3-Dimethoxy-6-(1-oxo-1,3-dihydro-isobenzofuran-5-yl)-phenoxymethyl]-N-methyl-benzamide]: the negative-log IC50 (pIC50) was over 7.00.
As for `COc1ccc(-c2ccc3c(c2)COC3=O)c(OCc2ccc(C(=O)N(C)C)cc2)c1OC` [Compound 139, 4-[2,3-Dimethoxy-6-(1-oxo-1,3-dihydro-isobenzofuran-5-yl)-phenoxymethyl]-N,N-dimethyl-benzamide], the figure is over 7.00.
Under `COc1ccc(-c2ccc3c(c2)COC3=O)c(OCc2cccc(C(=O)N(C)C)c2)c1OC` [Compound 140, 3-[2,3-Dimethoxy-6-(1-oxo-1,3-dihydro-isobenzofuran-5-yl)-phenoxymethyl]-N,N-dimethyl-benzamide] stands over 7.00; under `COc1ccc(-c2ccc3c(c2)COC3=O)c(OCc2ccc(S(N)(=O)=O)cc2)c1OC` [Compound 141, 4-[2,3-Dimethoxy-6-(1-oxo-1,3-dihydro-isobenzofuran-5-yl)-phenoxymethyl]-benzenesulfonamide], over 7.00; under `COc1ccc(-c2ccc3c(c2)COC3=O)c(OCc2ccc(S(C)(=O)=O)cc2)c1OC` [Compound 142, 5-[2-(4-Methanesulfonyl-benzyloxy)-3,4-dimethoxy-phenyl]-3H-isobenzofuran-1-one], over 7.00.
In the case of `COc1ccc(-c2ccc3c(c2)COC3=O)c(OCc2cccc(S(C)(=O)=O)c2)c1OC` [Compound 143, 5-[2-(3-Methanesulfonyl-benzyloxy)-3,4-dimethoxy-phenyl]-3H-isobenzofuran-1-one], the pIC50 is over 7.00.
Under `COc1ccc(-c2ccc3c(c2)COC3=O)c(OCc2cccc(S(N)(=O)=O)c2)c1OC` [Compound 144, 3-[2,3-Dimethoxy-6-(1-oxo-1,3-dihydro-isobenzofuran-5-yl)-phenoxymethyl]-benzenesulfonamide] stands over 7.00; under `COc1ccc(-c2ccc3c(c2)COC3=O)c(OCc2cccc(S(=O)(=O)N(C)C)c2)c1OC` [Compound 145, 3-[2,3-Dimethoxy-6-(1-oxo-1,3-dihydro-isobenzofuran-5-yl)-phenoxymethyl]-N,N-dimethyl-benzenesulfonamide], over 7.00; under `COc1ccc(-c2ccc3c(c2)COC3=O)c(OCc2cccc(C(N)=O)c2)c1OC` [Compound 146, 3-[2,3-Dimethoxy-6-(1-oxo-1,3-dihydro-isobenzofuran-5-yl)-phenoxymethyl]-benzamide], over 7.00.
Under `COc1ccc(-c2ccc3c(c2)CNC3=O)c(OCCC(C)C)c1OC` [Compound 147, 5-[3,4-Dimethoxy-2-(3-methyl-butoxy)-phenyl]-2,3-dihydro-isoindol-1-one] stands over 7.00; under `COc1ccc(-c2ccc3c(c2)CNC3=O)c(OCC(C)(C)C)c1OC` [Compound 148, 5-[2-(2,2-Dimethyl-propoxy)-3,4-dimethoxy-phenyl]-2,3-dihydro-isoindol-1-one], over 7.00; under `COc1ccc(-c2ccc3c(c2)CNC3=O)c(OCC2CCC2)c1OC` [Compound 149, 5-(2-Cyclobutylmethoxy-3,4-dimethoxy-phenyl)-2,3-dihydro-isoindol-1-one], over 7.00.
Under `COc1ccc(-c2ccc3c(c2)CNC3=O)c(OCc2ccc(S(C)(=O)=O)cc2)c1OC` [Compound 150, 5-[2-(4-Methanesulfonyl-benzyloxy)-3,4-dimethoxy-phenyl]-2,3-dihydro-isoindol-1-one] stands over 7.00; under `COc1ccc(-c2ccc3c(c2)CNC3=O)c(OCC2(CO)COC2)c1OC` [Compound 151, 5-[2-(3-Hydroxymethyl-oxetan-3-ylmethoxy)-3,4-dimethoxy-phenyl]-2,3-dihydro-isoindol-1-one], 6.30 to 7.00.
`COc1ccc(-c2ccc3c(c2)CNC3=O)c(OCCC(C)(C)C)c1OC` [Compound 152, 5-[2-(3,3-Dimethyl-butoxy)-3,4-dimethoxy-phenyl]-2,3-dihydro-isoindol-1-one]: the pIC50 was over 7.00.
As for `COc1ccc(-c2ccc3c(c2)CNC3=O)c(OCc2ccc(C(N)=O)cc2)c1OC` [Compound 153, 4-[2,3-Dimethoxy-6-(1-oxo-2,3-dihydro-1H-isoindol-5-yl)-phenoxymethyl]-benzamide], the pIC50 is over 7.00.
Under `COc1ccc(-c2ccc3c(c2)CNC3=O)c(OCC(C)(C)CO)c1OC` [Compound 154, 5-[2-(3-Hydroxy-2,2-dimethyl-propoxy)-3,4-dimethoxy-phenyl]-2,3-dihydro-isoindol-1-one] stands over 7.00; under `CNC(=O)c1ccc(COc2c(-c3ccc4c(c3)CNC4=O)ccc(OC)c2OC)cc1` [Compound 155, 4-[2,3-Dimethoxy-6-(1-oxo-2,3-dihydro-1H-isoindol-5-yl)-phenoxymethyl]-N-methyl-benzamide], over 7.00.
`COc1ccc(-c2ccc3c(c2)CNC3=O)c(OCc2ccc(C(=O)N(C)C)cc2)c1OC` [Compound 156, 4-[2,3-Dimethoxy-6-(1-oxo-2,3-dihydro-1H-isoindol-5-yl)-phenoxymethyl]-N,N-dimethyl-benzamide]: the pIC50 is over 7.00.
As for `COc1ccc(-c2ccc3c(c2)CNC3=O)c(OCc2cccc(C(=O)N(C)C)c2)c1OC` [Compound 157, 3-[2,3-Dimethoxy-6-(1-oxo-2,3-dihydro-1H-isoindol-5-yl)-phenoxymethyl]-N,N-dimethyl-benzamide], the figure is over 7.00.
For the compound `COc1ccc(-c2ccc3c(c2)CNC3=O)c(OCc2cccc(S(N)(=O)=O)c2)c1OC` [Compound 158, 3-[2,3-Dimethoxy-6-(1-oxo-2,3-dihydro-1H-isoindol-5-yl)-phenoxymethyl]-benzenesulfonamide], the pIC50 was over 7.00.
Regarding `COc1ccc(-c2ccc3c(c2)CNC3=O)c(OCc2cccc(C(N)=O)c2)c1OC` [Compound 159, 3-[2,3-Dimethoxy-6-(1-oxo-2,3-dihydro-1H-isoindol-5-yl)-phenoxymethyl]-benzamide], the pIC50 is 6.30 to 7.00.
As for `COc1ccc(-c2ccc3c(c2)CNC3=O)c(OCc2cccc(S(C)(=O)=O)c2)c1OC` [Compound 160, 5-[2-(3-Methanesulfonyl-benzyloxy)-3,4-dimethoxy-phenyl]-2,3-dihydro-isoindol-1-one], the figure is over 7.00; as for `COc1ccc(-c2ccc3c(c2)CNC3=O)c(OCc2ccc(S(N)(=O)=O)cc2)c1OC` [Compound 161, 4-[2,3-Dimethoxy-6-(1-oxo-2,3-dihydro-1H-isoindol-5-yl)-phenoxymethyl]-benzenesulfonamide], over 7.00.
With `COC(=O)C(C)(C)COc1c(-c2cccc3c2CCC3=O)ccc(OC)c1OC` [Compound 162, 3-[2,3-Dimethoxy-6-(1-oxo-indan-4-yl)-phenoxy]-2,2-dimethyl-propionic acid methyl ester], the pIC50 was over 7.00.
As for `COc1ccc(-c2cccc3c2CCC3=O)c(OCC2(C)COC2)c1OC` [Compound 163, 4-[3,4-Dimethoxy-2-(3-methyl-oxetan-3-ylmethoxy)-phenyl]-indan-1-one], the figure is over 7.00; as for `COc1ccc(-c2cccc3c2COC3=O)c(OCC2(C)COC2)c1OC` [Compound 164, 4-[3,4-Dimethoxy-2-(3-methyl-oxetan-3-ylmethoxy)-phenyl]-3H-isobenzofuran-1-one], 6.30 to 7.00; as for `COC(=O)C(C)(C)COc1c(-c2ccc3c(c2)CCC3=O)ccc(OC)c1OC` [Compound 165, 3-[2,3-Dimethoxy-6-(1-oxo-indan-5-yl)-phenoxy]-2,2-dimethyl-propionic acid methyl ester], over 7.00.
Turning to `COc1ccc(-c2cccc3c2CCC3=O)c(OCC(C)C)c1OC` [Compound 166, 4-(2-Isobutoxy-3,4-dimethoxy-phenyl)-indan-1-one], the pIC50 was over 7.00.
In the case of `COc1ccc(-c2cc(OC)c(OC)c3c2CCC3=O)c(OCC(C)C)c1OC` [Compound 167, 4-(2-Isobutoxy-3,4-dimethoxy-phenyl)-6,7-dimethoxy-indan-1-one], the negative logarithm of the IC50 (pIC50) is 6.30 to 7.00.
